Experimental data from patent US5698411A, “Method for determining activity of enzymes in metabolically active whole cells” (priority 1995, dated 1997).

Legend:
Type in all cases: cell-based, human
lymphocytes [1] = assay: aberrant enzyme activities in febrile children, lymphocytes (Table 7)
granulocytes [2] = assay: aberrant enzyme activities in febrile children, granulocytes (Table 7)
monocytes = assay: aberrant enzyme activities in febrile children, monocytes (Table 7)
granulocytes [3] = assay: peptidase activity in leukemia and non-leukemia patients, granulocytes (Table 6C); set-up: unit not given here
From the text: (§1) Artificial intelligence was used to analyze data of cellular enzyme functions, and determine normal and disease states. Peptidases were used to distinguish leukemia from non-leukemia (output pattern). For input patterns lymphocyte and granulocyte cell types were used with aminopeptidases, cathepsins and dipeptidylpeptidase enzyme activities. In this Example, illustrated in Tables 6A-6C, three normals and three leukemia patients were used as known output patterns for the neural network to learn (in practice, the larger the learning set the more accurate unknown prediction will be). Unknowns were then presented to the learned algorithm as shown in the test case examples. Clinical diagnosis was confirmed by physicians. The trained neural network was able to correctly classify the leukemia from the non-leukemia.

lymphocytes [4] = assay: peptidase activity in leukemia and non-leukemia patients, lymphocytes (Table 6C); set-up: unit not given here
From the text: as §1

## N[C@@H](CO)C(=O)Nc1ccc2c(c1)Oc1cc(NC(=O)[C@@H](N)CO)ccc1C21OC(=O)c2ccccc21 [SER, (H-L-Ser)2 Rho 110 .2TFA]
Lymphocytes [1]; P92 Adenitis
  aberrant enzyme activity, LYMPHS: .smallcircle.
Lymphocytes [1]; P97 Pyelonephritis
  aberrant enzyme activity, LYMPHS: .smallcircle.
Lymphocytes [1]; P103 Viral Syndrome
  aberrant enzyme activity, LYMPHS: .smallcircle.
Granulocytes [2]; P97 Pyelonephritis
  aberrant enzyme activity, GRANS: .smallcircle.
Granulocytes [2]; P103 Viral Syndrome
  aberrant enzyme activity, GRANS: .smallcircle.
monocytes; P92 Adenitis
  aberrant enzyme activity, MONOS: .smallcircle.
monocytes; P97 Pyelonephritis
  aberrant enzyme activity, MONOS: .smallcircle.

## dichlorofluorescein [reference compound]
Lymphocytes [1]; P88 Enteritis
  aberrant enzyme activity, LYMPHS: .smallcircle.
Lymphocytes [1]; P89 Viral Stomatitis
  aberrant enzyme activity, LYMPHS: + (>0.25 Increase over normal range)
Lymphocytes [1]; P92 Adenitis
  aberrant enzyme activity, LYMPHS: + (>0.25 Increase over normal range)
Lymphocytes [1]; P95 Viral Syndrome
  aberrant enzyme activity, LYMPHS: + (>0.25 Increase over normal range)
Lymphocytes [1]; P96 Viral Syndrome
  aberrant enzyme activity, LYMPHS: + (>0.25 Increase over normal range)
Lymphocytes [1]; P97 Pyelonephritis
  aberrant enzyme activity, LYMPHS: + (>0.25 Increase over normal range)
Lymphocytes [1]; P99 Viral Syndrome
  aberrant enzyme activity, LYMPHS: .smallcircle.
Lymphocytes [1]; P101 Fever -- Unknown Origin
  aberrant enzyme activity, LYMPHS: + (>0.25 Increase over normal range)
Lymphocytes [1]; P102 UTI
  aberrant enzyme activity, LYMPHS: .smallcircle.
Lymphocytes [1]; P103 Viral Syndrome
  aberrant enzyme activity, LYMPHS: + (>0.25 Increase over normal range)
Granulocytes [2]; P88 Enteritis
  aberrant enzyme activity, GRANS: .smallcircle.
Granulocytes [2]; P89 Viral Stomatitis
  aberrant enzyme activity, GRANS: + (>0.25 Increase over normal range)
Granulocytes [2]; P92 Adenitis
  aberrant enzyme activity, GRANS: + (>0.25 Increase over normal range)
Granulocytes [2]; P95 Viral Syndrome
  aberrant enzyme activity, GRANS: + (>0.25 Increase over normal range)
Granulocytes [2]; P96 Viral Syndrome
  aberrant enzyme activity, GRANS: + (>0.25 Increase over normal range)
Granulocytes [2]; P97 Pyelonephritis
  aberrant enzyme activity, GRANS: + (>0.25 Increase over normal range)
Granulocytes [2]; P99 Viral Syndrome
  aberrant enzyme activity, GRANS: .smallcircle.
Granulocytes [2]; P101 Fever -- Unknown Origin
  aberrant enzyme activity, GRANS: + (>0.25 Increase over normal range)
Granulocytes [2]; P102 UTI
  aberrant enzyme activity, GRANS: .smallcircle.
Granulocytes [2]; P103 Viral Syndrome
  aberrant enzyme activity, GRANS: + (>0.25 Increase over normal range)
monocytes; P88 Enteritis
  aberrant enzyme activity, MONOS: .smallcircle.
monocytes; P89 Viral Stomatitis
  aberrant enzyme activity, MONOS: + (>0.25 Increase over normal range)
monocytes; P92 Adenitis
  aberrant enzyme activity, MONOS: + (>0.25 Increase over normal range)
monocytes; P95 Viral Syndrome
  aberrant enzyme activity, MONOS: + (>0.25 Increase over normal range)
monocytes; P96 Viral Syndrome
  aberrant enzyme activity, MONOS: + (>0.25 Increase over normal range)
monocytes; P97 Pyelonephritis
  aberrant enzyme activity, MONOS: + (>0.25 Increase over normal range)
monocytes; P99 Viral Syndrome
  aberrant enzyme activity, MONOS: .smallcircle.
monocytes; P101 Fever -- Unknown Origin
  aberrant enzyme activity, MONOS: + (>0.25 Increase over normal range)
monocytes; P102 UTI
  aberrant enzyme activity, MONOS: .smallcircle.
monocytes; P103 Viral Syndrome
  aberrant enzyme activity, MONOS: + (>0.25 Increase over normal range)

## C[C@@H](O)[C@H](N)C(=O)N1CCC[C@H]1C(=O)Nc1ccc2c(c1)Oc1cc(NC(=O)[C@@H]3CCCN3C(=O)[C@@H](N)[C@@H](C)O)ccc1C21OC(=O)c2ccccc21 [TP, (H-L-Thr--Pro)2 Rho 110 .2TFA]
Granulocytes [3]; J4 11/21/91 acute leuk.
  enzyme activity, Grans: 5.96
Granulocytes [3]; J4 12/2/91 A L
  enzyme activity, Grans: 2.59
Granulocytes [3]; J4 12/3/91 acute leuk.
  enzyme activity, Grans: 1.93
Granulocytes [3]; J5 11/27/91 A M L
  enzyme activity, Grans: 2.72
Granulocytes [3]; J19 11/27/91 C L L
  enzyme activity, Grans: 2.95
Granulocytes [3]; J22 12/2/91 A M L
  enzyme activity, Grans: 2.33
Granulocytes [3]; J22 12/9/91 A M L
  enzyme activity, Grans: 2.51
Granulocytes [3]; N191 normal
  enzyme activity, Grans: 4.73
Granulocytes [3]; N192 normal
  enzyme activity, Grans: 4.62
Granulocytes [3]; N193 normal
  enzyme activity, Grans: 4.96
Granulocytes [3]; N194 normal
  enzyme activity, Grans: 3.77
Granulocytes [3]; N195 normal
  enzyme activity, Grans: 3.74
Granulocytes [3]; N197 normal
  enzyme activity, Grans: 3.82
Granulocytes [3]; N199 normal
  enzyme activity, Grans: 3.71
Granulocytes [3]; N200 normal
  enzyme activity, Grans: 4.69
Granulocytes [3]; N201 normal
  enzyme activity, Grans: 4.23
Granulocytes [3]; N202 normal
  enzyme activity, Grans: 4.44
Granulocytes [3]; N206 normal
  enzyme activity, Grans: 5.98
Granulocytes [3]; P68 tachycardia
  enzyme activity, Grans: 5.63
Granulocytes [3]; P69 pancreatic CA
  enzyme activity, Grans: 4.21
Granulocytes [3]; P70 cirrhosis/hemobilia
  enzyme activity, Grans: 4.02
Granulocytes [3]; P71 ac. pyelonephritis
  enzyme activity, Grans: 4.37
Lymphocytes [4]; J4 11/21/91 acute leuk.
  enzyme activity, Lymphs: 2.30
Lymphocytes [4]; J4 12/2/91 A L
  enzyme activity, Lymphs: 1.46
Lymphocytes [4]; J4 12/3/91 acute leuk.
  enzyme activity, Lymphs: 1.18
Lymphocytes [4]; J5 11/27/91 A M L
  enzyme activity, Lymphs: 1.32
Lymphocytes [4]; J19 11/27/91 C L L
  enzyme activity, Lymphs: 0.50
Lymphocytes [4]; J22 12/2/91 A M L
  enzyme activity, Lymphs: 0.99
Lymphocytes [4]; J22 12/9/91 A M L
  enzyme activity, Lymphs: 1.02
Lymphocytes [4]; N191 normal
  enzyme activity, Lymphs: 2.14
Lymphocytes [4]; N192 normal
  enzyme activity, Lymphs: 2.12
Lymphocytes [4]; N193 normal
  enzyme activity, Lymphs: 2.33
Lymphocytes [4]; N194 normal
  enzyme activity, Lymphs: 1.82
Lymphocytes [4]; N195 normal
  enzyme activity, Lymphs: 1.90
Lymphocytes [4]; N197 normal
  enzyme activity, Lymphs: 1.96
Lymphocytes [4]; N199 normal
  enzyme activity, Lymphs: 1.86
Lymphocytes [4]; N200 normal
  enzyme activity, Lymphs: 2.39
Lymphocytes [4]; N201 normal
  enzyme activity, Lymphs: 1.88
Lymphocytes [4]; N202 normal
  enzyme activity, Lymphs: 2.49
Lymphocytes [4]; N206 normal
  enzyme activity, Lymphs: 2.89
Lymphocytes [4]; P68 tachycardia
  enzyme activity, Lymphs: 1.90
Lymphocytes [4]; P69 pancreatic CA
  enzyme activity, Lymphs: 2.26
Lymphocytes [4]; P70 cirrhosis/hemobilia
  enzyme activity, Lymphs: 1.89
Lymphocytes [4]; P71 ac. pyelonephritis
  enzyme activity, Lymphs: 1.86
